# Experimental data as given in US11279735B2, “Cyclic peptide antibiotics” (priority 2017, dated 2022).
# *1 amine or outer side, *2 acyl side, *3 side chain or, on linkers, in order; H or OH if unused. Where a SMILES comes first, the peptide text is derived from it. [ ]: non-standard residue; d: D form. The star is where a group is joined. X2 = CCCCCC[C@@H](OC[C@@H](C)N[*:1])[C@@H](C)C(=O)[*:2]; X23 = CCCCCCCCCC[C@@H](OCCN[*:1])[C@@H](C)C(=O)[*:2]; Gly(cHept) = N[C@H](C(=O)O)C1CCCCCC1; aIle = CC[C@@H](C)[C@H](N)C(=O)O; aThr = C[C@H](O)[C@H](N)C(=O)O; NMeL = CN[C@@H](CC(C)C)C(=O)O; Chg = N[C@H](C(=O)O)C1CCCCC1; Dap = NC[C@H](N)C(=O)O; X24 = NC[C@H](F)C*
# System: Escherichia coli (E. coli) strain CFT073 ATCC 700928
# Type: cell-based
# Conditions: ATCC 700928, 22 h
# Description: In vitro antimicrobial activity of each compound was determined by measuring minimal inhibitor concentrations (MICs) using the broth micro-dilution technique as approved by the Clinical and Laboratory Standards Institute (CLSI) (Methods for Dilution Antimicrobial Susceptibility Tests for Bacteria that Grow Aerobically; Approved Standard—Eighth Edition. CLSI document M07-A8. Wayne, Pa.: Clinical and Laboratroy Standards; 2009). Antibacterial activity was measure against Escherichia coli (E. coli) strain CFT073 ATCC 700928, which is a clinically relevant Gram-negative strain. Cells were inoculated onto plates of Mueller Hinton Agar and grown at 37° C. for 16-18 hours. Inocula suspensions were prepared by scraping cells into 1 mL of testing media (Mueller Hinton II cation adjusted Broth supplemented with 0.002% v/v Tween-80) and diluting to a final OD600 nm of 0.01.
# Test compounds were prepared in DMSO at a concentration of 100 uM The compounds were tested under several different dilution formats and the data are reported in Tables 6, 7 and 8. In protocol 1, the compound stocks were diluted into testing media at a concentration of 64 μg/ml and serial 2-fold dilutions were made in the same media, in 96-well U bottom microtiter dishes, for a total of 10 compound concentrations. In protocol 2, the compound stocks were diluted into testing media at a concentration of 4 μg/mL and serial 2-fold dilutions were made in the same media, in 96-well U bottom microtiter dishes, for a total of 10 compound concentrations. In protocol 3, compound stocks were diluted into testing media at a concentration of 0.5 μg/mL, with serial 2-fold dilutions conducted as described above. In protocol 4, compound stocks were diluted into testing media at a concentration of 0.13 μg/mL, with serial 2-fold dilutions conducted as described above. Inocula suspensions were added to the 2-fold serial dilutions of test compounds to a final density of OD OD600 nm of 0.0005 and incubated at 35° C. for 22 hours.
row,MIC [µM],Compound
1,6.3,"CCCCCC[C@H]1OC(=O)CNC(=O)[C@H]([C@H](C)O)NC(=O)[C@H](CN)NC(=O)[C@H](C2CCCCC2)NC(=O)[C@H](CC(C)C)N(C)C(=O)[C@@H]1CCOc1ccc(C)cc1 [Example 106, (6S,9S,12S,15S,18R,19R)-9-(aminomethyl)-12-cyclohexyl-19-hexyl-15-isobutyl-16-methyl-18-[2-(4-methylphenoxy)ethyl]-6-[(1S)-1-hydroxyethyl]-1-oxa-4,7,10,13,16-pentazacyclononadecane-2,5,8,11,14,17-hexone]"
2,0.78,"CCC[C@H]1C(=O)N[C@@H](C2CCCCCC2)C(=O)N[C@@H](CN)C(=O)N[C@@H]([C@H](C)O)C(=O)NCC(=O)O[C@H](CC2CC3CCC2C3)[C@@H](C)C(=O)N1C (stereo partly drawn) [Example 134, (6S,9S,12S,15S,18R,19R)-9-(aminomethyl)-12-cycloheptyl-16,18-dimethyl-19-(norbornan-2-ylmethyl)-15-propyl-6-[(1S)-1-hydroxyethyl]-1-oxa-4,7,10,13,16-pentazacyclononadecane-2,5,8,11,14,17-hexone]"
3,18,CCCCCC[C@@H]1OC(=O)CNC(=O)[C@H](CNC(=O)C2CCNCC2)NC(=O)[C@H](CN)NC(=O)[C@H](C2CCCCC2)NC(=O)[C@H](CC(C)C)N(C)C(=O)[C@@H]1C (stereo in doubt) [Example 155]
4,1.6,"CCCCCC[C@H]1OC[C@@H](C)NC(=O)[C@H](COc2ccc(CCN)cc2)NC(=O)[C@H](CN)NC(=O)[C@H](C2CCCCC2)NC(=O)[C@H](CC(C)C)N(C)C(=O)[C@@H]1C [Example 174, (3R,6S,9S,12S,15S,18R,19R)-6-((4-(2-Aminoethyl)phenoxy)methyl)-9-(aminomethyl)-12-cyclohexyl-19-hexyl-15-isobutyl-3,16,18-trimethyl-1-oxa-4,7,10,13,16-pentaazacyclononadecane-5,8,11,14,17-pentaone]"
5,14,"CCCCCCCCCC[C@H]1OC(=O)CNC(=O)[C@H](COCCCN)NC(=O)[C@H](CO)NC(=O)[C@H]([C@@H](C)CC)NC(=O)[C@H](CC(C)C)N(C)C(=O)[C@@H]1C [Example 95, (6S,9S,12S,15S,18R,19R)-6-(3-aminopropoxymethyl)-19-decyl-9-(hydroxymethyl)-15-isobutyl-16,18-dimethyl-12-[(1S)-1-methylpropyl]-1-oxa-4,7,10,13,16-pentazacyclononadecane-2,5,8,11,14,17-hexone]"
6,71,"CCCCCC[C@H]1OC(=O)CNC(=O)[C@H]([C@H](C)O)NC(=O)[C@H](CN)NC(=O)[C@H](c2ccccc2)NC(=O)[C@H](CC(C)C)N(C)C(=O)[C@@H]1C [Example 98, (6S,9S,12S,15S,18R,19R)-9-(aminomethyl)-19-hexyl-15-isobutyl-16,18-dimethyl-12-phenyl-6-[(1S)-1-hydroxyethyl]-1-oxa-4,7,10,13,16-pentazacyclononadecane-2,5,8,11,14,17-hexone]"
7,6.3,"CCCCCC[C@H]1OC[C@@H](C)NC(=O)[C@H](CN)NC(=O)[C@H](CN)NC(=O)[C@H](C2CCCCCC2)NC(=O)[C@H](CC(C)C)N(C)C(=O)[C@@H]1C [Example 151, (3R,6S,9S,12S,15S,18R,19R)-6,9-Bis(aminomethyl)-12-cycloheptyl-19-hexyl-15-isobutyl-3,16,18-trimethyl-1-oxa-4,7,10,13,16-pentazacyclononadecane-5,8,11,14,17-pentone] (cyclo([Dap][Dap][X2][NMeL][Gly(cHept)]))"

# The remaining lines, values behind:
row,Compound,MIC [µM]
1,"CCCCCCCCCC[C@H]1OCCNC(=O)[C@H]([C@H](C)O)NC(=O)[C@H](CN)NC(=O)[C@H]([C@H](C)CC)NC(=O)[C@H](CC(C)C)N(C)C(=O)[C@@H]1C [Example 47, (6S,9S,12S,15S,18R,19R)-9-(aminomethyl)-19-decyl-6-[(1S)-1-hydroxyethyl]-15-isobutyl-16,18-dimethyl-12-[(1R)-1-methylpropyl]-1-oxa-4,7,10,13,16-pentazacyclononadecane-5,8,11,14,17-pentone] (cyclo([Dap][aThr][X23][NMeL][aIle]))",3.1
2,"CCCCCCCCCC[C@H]1OC(=O)CNC(=O)[C@H](COCCO)NC(=O)[C@H](CO)NC(=O)[C@H]([C@@H](C)CC)NC(=O)[C@H](CC(C)C)N(C)C(=O)[C@@H]1C [Example 48, (6S,9S,12S,15S,18R,19R)-19-decyl-6-(2-hydroxyethoxymethyl)-9-(hydroxymethyl)-15-isobutyl-16,18-dimethyl-12-[(1S)-1-methylpropyl]-1-oxa-4,7,10,13,16-pentazacyclononadecane-2,5,8,11,14,17-hexone]",50
3,"CCCCCCCCCC[C@H]1OC(=O)CNC(=O)[C@H](CO)NC(=O)[C@H](CO)NC(=O)[C@H](C(C)C)NC(=O)[C@H](CC(C)C)N(C)C(=O)[C@@H]1C [Example 39, (6S,9S,12S,15S,18R,19R)-19-decyl-6,9-bis(hydroxymethyl)-15-isobutyl-12-isopropyl-16,18-dimethyl-1-oxa-4,7,10,13,16-pentazacyclononadecane-2,5,8,11,14,17-hexone]",25
4,"CCCCCCCCCC[C@H]1OC(=O)[C@@H](CC)NC(=O)[C@H]([C@H](C)O)NC(=O)[C@H](CN)NC(=O)[C@H]([C@H](C)CC)NC(=O)[C@H](CC(C)C)N(C)C(=O)[C@@H]1C [Example 93, (3R,6S,9S,12S,15S,18R,19R)-9-(aminomethyl)-19-decyl-3-ethyl-15-isobutyl-16,18-dimethyl-6-[(1S)-1-hydroxyethyl]-12-[(1R)-1-methylpropyl]-1-oxa-4,7,10,13,16-pentazacyclononadecane-2,5,8,11,14,17-hexone]",10
5,"CCCCCCCCCC[C@H]1OC(=O)CNC(=O)[C@H](CC)NC(=O)[C@H](CO)NC(=O)[C@H]([C@@H](C)CC)NC(=O)[C@H](CC(C)C)N(C)C(=O)[C@@H]1C [Example 24, (6S,9S,12S,15S,18R,19R)-19-decyl-16-ethyl-9-(hydroxymethyl)-15-isobutyl-16,18-dimethyl-12-[(1S)-1-methylpropyl]-1-oxa-4,7,10,13,16-pentazacyclononadecane-2,5,8,11,14,17-hexone]",13
6,"CC[C@@H](C)[C@@H]1NC(=O)[C@H](CC(C)C)N(C)C(=O)[C@H](C)[C@@H](CCCCc2ccccc2)OC(=O)CNC(=O)[C@H]([C@H](C)O)NC(=O)[C@H](CN)NC1=O [Example 89, (6S,9S,12S,15S,18R,19R)-9-(aminomethyl)-15-isobutyl-16,18-dimethyl-19-(4-phenylbutyl)-6-[(1S)-1-hydroxyethyl]-12-[(1R)-1-methylpropyl]-1-oxa-4,7,10,13,16-pentazacyclononadecane-2,5,8,11,14,17-hexone]",12
7,"CCCC(CCC)C[C@H]1OC(=O)CNC(=O)[C@H]([C@H](C)O)NC(=O)[C@H](CO)NC(=O)[C@H]([C@H](C)CC)NC(=O)[C@H](CC(C)C)N(C)C(=O)[C@@H]1C [Example 42, (6S,9S,12S,15S,18R,19R)-6-[(1S)-1-hydroxyethyl]-9-(hydroxymethyl)-15-isobutyl-16,18-dimethyl-12-[(1R)-1-methylpropyl]-19-(2-propylpentyl)-1-oxa-4,7,10,13,16-pentazacyclononadecane-2,5,8,11,14,17-hexone]",50
8,"CCCCCC[C@H]1OC(=O)CNC(=O)[C@H](CO)NC(=O)[C@H](CN)NC(=O)[C@H]([C@H](C)CC)NC(=O)[C@H](CC(C)C)N(C)C(=O)[C@@H]1C [Example 11, (6S,9S,12S,15S,18R,19R)-9-(aminomethyl)-19-hexyl-6-(hydroxymethyl)-15-isobutyl-16,18-dimethyl-12-[(1R)-1-methylpropyl]-1-oxa-4,7,10,13,16-pentazacyclononadecane-2,5,8,11,14,17-hexone]",25
9,"CCCCCCCCCC[C@H]1OC(=O)CNC(=O)[C@H]([C@H](C)O)NC(=O)[C@H](CCN)NC(=O)[C@H]([C@@H](C)CC)NC(=O)[C@H](CC(C)C)N(C)C(=O)[C@@H]1C [Example 25, (6S,9S,12S,15S,18R,19R)-9-(2-aminoethyl)-19-decyl-6-[(1S)-1-hydroxyethyl]-15-isobutyl-16,18-dimethyl-12-[(1S)-1-methylpropyl]-1-oxa-4,7,10,13,16-pentazacyclononadecane-2,5,8,11,14,17-hexone]",25

# Same assay, conditions: E. coli CFT073 ATCC 700928; Mueller Hinton II cation adjusted Broth with 0.002% v/v Tween-80; 35° C. for 22 hours; lowest concentration that completely prevented bacterial growth
row,Compound,MIC [µM]
1,"CCCCCC[C@H]1OC[C@@H](C)NC(=O)[C@H](COC[C@@H](F)CN)NC(=O)[C@H](CN)NC(=O)[C@H](C2CCCCC2)NC(=O)[C@H](CC(C)C)N(C)C(=O)[C@@H]1C [Example 158, (3R,6S,9S,12S,15S,18R,19R)-6-(((S)-3-Amino-2-fluoropropoxy)methyl)-9-(aminomethyl)-12-cyclohexyl-19-hexyl-15-isobutyl-3,16,18-trimethyl-1-oxa-4,7,10,13,16-pentaazacyclononadecane-5,8,11,14,17-pentaone] (cyclo([Chg][Dap]S(X24)[X2][NMeL]))",12
